≈ marks a conversion by molar mass, not a printed value.
Tests used:
[1] = tested on: Staphylococcus aureus; assay: Antibacterial activity against methicillin-resistant Staphylococcus aureus M12 incubated for 16 to 20 hrs by broth microdilution method; format: functional; settings: time 16-20 hrs
[2] = tested on: Staphylococcus aureus; assay: Antibacterial activity against methicillin-resistant Staphylococcus aureus M14 incubated for 16 to 20 hrs by broth microdilution method; format: functional; settings: time 16-20 hrs
[3] = tested on: Staphylococcus aureus; assay: Antibacterial activity against methicillin-resistant Staphylococcus aureus M23 incubated for 16 to 20 hrs by broth microdilution method; format: functional; settings: time 16-20 hrs
[4] = tested on: Staphylococcus aureus; assay: Antibacterial activity against methicillin-resistant Staphylococcus aureus M21 incubated for 16 to 20 hrs by broth microdilution method; format: functional; settings: time 16-20 hrs
[5] = tested on: Staphylococcus aureus; assay: Antibacterial activity against methicillin-resistant Staphylococcus aureus M11 incubated for 16 to 20 hrs by broth microdilution method; format: functional; settings: time 16-20 hrs
[6] = Hemolytic activity against sheep erythrocytes; format: toxicity, cell-based, Ovis aries, Erythrocyte
[7] = tested on: Staphylococcus aureus; assay: Antibacterial activity against methicillin-resistant Staphylococcus aureus M22 incubated for 16 to 20 hrs by broth microdilution method; format: functional; settings: time 16-20 hrs
[8] = tested on: Escherichia coli; assay: Antibacterial activity against Escherichia coli ATCC 25922 incubated for 16 to 20 hrs by broth microdilution method; format: functional; settings: time 16-20 hrs
[9] = tested on: Staphylococcus aureus; assay: Antibacterial activity against methicillin-resistant Staphylococcus aureus M13 incubated for 16 to 20 hrs by broth microdilution method; format: functional; settings: time 16-20 hrs
[10] = tested on: Staphylococcus aureus; assay: Antibacterial activity against methicillin-resistant Staphylococcus aureus M16 incubated for 16 to 20 hrs by broth microdilution method; format: functional; settings: time 16-20 hrs
[11] = tested on: Staphylococcus aureus; assay: Antibacterial activity against methicillin-resistant Staphylococcus aureus M20 incubated for 16 to 20 hrs by broth microdilution method; format: functional; settings: time 16-20 hrs
[12] = tested on: Staphylococcus aureus; assay: Antibacterial activity against Staphylococcus aureus ATCC 29213 incubated for 16 to 20 hrs by broth microdilution method; format: functional; settings: time 16-20 hrs
[13] = tested on: Staphylococcus aureus; assay: Antibacterial activity against methicillin-resistant Staphylococcus aureus M17 incubated for 16 to 20 hrs by broth microdilution method; format: functional; settings: time 16-20 hrs

| SMILES | MIC [1] [µg/mL] | MIC [2] [µg/mL] | MIC [3] [µg/mL] | MIC [4] [µg/mL] | MIC [5] [µg/mL] | HC50 [6] [µg/mL] | MIC [7] [µg/mL] | MIC [8] [µg/mL] | MIC [9] [µg/mL] | MIC [10] [µg/mL] | MIC [11] [µg/mL] | MIC [12] [µg/mL] | MIC [13] [µg/mL] |
| --- | --- | --- | --- | --- | --- | --- | --- | --- | --- | --- | --- | --- | --- |
| CCCCNC(=O)C[n+]1ccc(SCCCOc2ccc3ccc(=O)oc3c2CC=C(C)C)cc1.[Br-] | 8 | 4 | 8 | 4 | 4 | > 160 | 4 | > 128 | 8 | 4 | 4 | 2 | 8 |
| CC(C)=CCc1c(OCCCCCSc2cc[n+](CC(=O)N3CCOCC3)cc2)ccc2ccc(=O)oc12.[Br-] | 32 | 16 | 32 | 32 | 16 | > 160 | 32 | > 128 | 64 | 16 | 16 | 32 | 32 |
| CCCCCCNC(=O)C[n+]1ccc(SCCCCCOc2ccc3ccc(=O)oc3c2CC=C(C)C)cc1.[Br-] | 2 | 2 | 2 | 2 | 2 | > 160 | 2 | > 128 | 2 | 2 | 4 | 64 | 2 |
| CC(C)=CCc1c(OCCCCCSc2cc[n+](CC(=O)N(C)c3ccccc3)cc2)ccc2ccc(=O)oc12.[Br-] | 4 | 2 | 2 | 4 | 2 | > 160 | 4 | > 128 | 4 | 2 | 2 | 2 | 8 |
| CCCN(CCC)C(=O)C[n+]1ccc(SCCCCOc2ccc3ccc(=O)oc3c2CC=C(C)C)cc1.[Br-] | 4 | 2 | 2 | 2 | 2 | > 160 | 2 | > 128 | 8 | 2 | 1 | 2 | 2 |
| CCCCNC(=O)C[n+]1ccc(SCCCCCOc2ccc3ccc(=O)oc3c2CC=C(C)C)cc1.[Br-] | 2 | 1 | 2 | 1 | 1 | > 160 | 1 | > 128 | 2 | 2 | 1 | 2 | 2 |
| CCCN(CCC)C(=O)C[n+]1ccc(SCCCOc2ccc3ccc(=O)oc3c2CC=C(C)C)cc1.[Br-] | 16 | 8 | 8 | 8 | 4 | > 160 | 8 | 128 | 16 | 8 | 4 | 4 | 8 |
| CC(C)=CCc1c(OCCCSc2cc[n+](CC(=O)N(CC(C)C)CC(C)C)cc2)ccc2ccc(=O)oc12.[Br-] | 4 | 2 | 2 | 2 | 1 | > 160 | 2 | > 128 | 4 | 2 | 2 | 2 | 4 |
| C[C@@H](O)[C@H]1C(=O)N2C(C(=O)O)=C(S[C@@H]3CN[C@H](C(=O)N(C)C)C3)[C@H](C)[C@H]12 [MEROPENEM] | – | – | – | – | – | – | – | 0.063 (≈ 0.164 µM) | – | – | – | – | – |
| CCCCCNC(=O)C[n+]1ccc(SCCCCOc2ccc3ccc(=O)oc3c2CC=C(C)C)cc1.[Br-] | 4 | 1 | 1 | 4 | 2 | > 160 | 4 | > 128 | 4 | 2 | 1 | 4 | 2 |
| CCCCN(CCCC)C(=O)C[n+]1ccc(SCCCOc2ccc3ccc(=O)oc3c2CC=C(C)C)cc1.[Br-] | 4 | 1 | 2 | 2 | 1 | > 160 | 2 | > 128 | 4 | 2 | 1 | 1 | 1 |
| CC(C)=CCc1c(OCCCCSc2cc[n+](CC(=O)N3CCOCC3)cc2)ccc2ccc(=O)oc12.[Br-] | 64 | 32 | 32 | 32 | 32 | > 160 | 32 | > 128 | 64 | 32 | 32 | 32 | 32 |
| CC(C)=CCc1c(OCCCSc2cc[n+](CC(=O)N(C(C)C)C(C)C)cc2)ccc2ccc(=O)oc12.[Br-] | 8 | 2 | 4 | 4 | 2 | > 160 | 4 | > 128 | 8 | 4 | 2 | 4 | 4 |
| CCCNC(=O)C[n+]1ccc(SCCCCCOc2ccc3ccc(=O)oc3c2CC=C(C)C)cc1.[Br-] | 8 | 2 | 4 | 8 | 2 | 190 | 8 | > 128 | 8 | 2 | 2 | 2 | 8 |
| CCCCN(CCCC)C(=O)C[n+]1ccc(SCCCCCOc2ccc3ccc(=O)oc3c2CC=C(C)C)cc1.[Br-] | 1 | 0.5 | 1 | 1 | 0.5 | > 160 | 1 | > 128 | 1 | 1 | 0.5 | 1 | 2 |
| CCCNC(=O)C[n+]1ccc(SCCCCOc2ccc3ccc(=O)oc3c2CC=C(C)C)cc1.[Br-] | 16 | 8 | 8 | 2 | 4 | > 160 | 2 | > 128 | 16 | 8 | 8 | 16 | 8 |
| CC(C)=CCc1c(OCCCCSc2cc[n+](CC(=O)N(C)c3ccccc3)cc2)ccc2ccc(=O)oc12.[Br-] | 8 | 4 | 16 | 8 | 2 | > 160 | 8 | > 128 | 8 | 4 | 2 | 4 | 16 |
| CCCCN(CCCC)C(=O)C[n+]1ccc(SCCCCOc2ccc3ccc(=O)oc3c2CC=C(C)C)cc1.[Br-] | 2 | 1 | 0.5 | 0.5 | 1 | > 160 | 0.5 | > 128 | 2 | 1 | 0.5 | 1 | 1 |
| CCCCCCNC(=O)C[n+]1ccc(SCCCOc2ccc3ccc(=O)oc3c2CC=C(C)C)cc1.[Br-] | 4 | 2 | 2 | 4 | 2 | > 160 | 4 | 64 | 4 | 4 | 2 | 1 | 4 |
| COc1ccc2ccc(=O)oc2c1CC=C(C)C [OSTHOLE] | 64 (≈ 262 µM) | 64 (≈ 262 µM) | > 64 | > 64 | > 64 | > 80 | 64 (≈ 262 µM) | > 64 | > 64 | 64 (≈ 262 µM) | 64 (≈ 262 µM) | > 64 | 64 (≈ 262 µM) |
| CC(C)=CCc1c(OCCCCSc2cc[n+](CC(=O)N(C(C)C)C(C)C)cc2)ccc2ccc(=O)oc12.[Br-] | 4 | 2 | 2 | 2 | 1 | > 160 | 2 | > 128 | 4 | 2 | 1 | 2 | 2 |
| CCCCNC(=O)C[n+]1ccc(SCCCCOc2ccc3ccc(=O)oc3c2CC=C(C)C)cc1.[Br-] | 4 | 2 | 4 | 4 | 2 | > 160 | 4 | > 128 | 4 | 2 | 2 | 8 | 4 |
| CCCCCNC(=O)C[n+]1ccc(SCCCOc2ccc3ccc(=O)oc3c2CC=C(C)C)cc1.[Br-] | 4 | 2 | 8 | 2 | 2 | > 160 | 2 | 64 | 8 | 4 | 2 | 2 | 2 |

Source: ChEMBL document CHEMBL6109153, “Development of Membrane-Targeting Osthole Derivatives Containing Pyridinium Quaternary Ammonium Moieties with Potent Anti-Methicillin-Resistant Staphylococcus aureus Properties” (J Med Chem, 2025)
